Laboratory results: ChEMBL document CHEMBL1126187, “New bronchodilators. 3. Imidazo[4,5-c][1,8]naphthyridin-4(5H)-ones” (J Med Chem, 1992)

What was measured:
Cavia porcellus [1] = species on record: Cavia porcellus; experiment: Schultz-Dale (SD) reaction in tracheal strip isolated from passively sensitized guinea pigs; format: functional
Cavia porcellus [2] = experiment: Mean collapse time in antigen induced bronchospasm in passively sensitized guinea pigs at 10 mg/kg peroral dose; format: functional; conditions: route oral
Mus musculus = experiment: Acute lethal toxicity in mice on peroral administration.; format: organism-based; conditions: in vivo, po
[3] = biological target: Phosphodiesterase 4 (Canis familiaris); experiment: Inhibition of Canine Tracheal Smooth Muscle PDE 4
Cavia porcellus [4] = experiment: Mean collapse time in antigen induced bronchospasm in passively sensitized guinea pigs at 0.1 mg/kg peroral dose; format: functional; conditions: route oral
Cavia porcellus [5] = experiment: Mean collapse time in antigen induced bronchospasm in passively sensitized guinea pigs at 0.50 mg/kg peroral dose; format: functional; conditions: dose 0.5 mg/kg; route oral
Cavia porcellus [6] = experiment: Mean collapse time in antigen induced bronchospasm in passively sensitized guinea pigs at 1 mg/kg peroral dose; format: functional; conditions: route oral
Cavia porcellus [7] = experiment: Mean collapse time in antigen induced bronchospasm in passively sensitized guinea pigs at 50 mg/kg peroral dose; format: functional; conditions: route oral
Cavia porcellus [8] = experiment: Mean collapse time in antigen induced bronchospasm in passively sensitized guinea pigs at 5 mg/kg peroral dose; format: functional; conditions: route oral
Cavia porcellus [9] = species on record: Cavia porcellus; experiment: Effect on LTD4 induced contraction of guinea pig tracheal strips; format: functional; conditions: Trachea
Cavia porcellus [10] = species on record: Cavia porcellus; experiment: Effect on carbachol induced contraction of guinea pig tracheal strips; format: functional; conditions: Trachea
Cavia porcellus [11] = species on record: Cavia porcellus; experiment: Effect on histamine induced contraction of guinea pig tracheal strips; format: functional; conditions: Trachea
[12] = biological target: Phosphodiesterase 4 (Canis familiaris); experiment: Inhibition of Canine Tracheal Smooth Muscle PDE 4; remark: listed apart in the source
Cavia porcellus [13] = experiment: Mean collapse time in antigen induced bronchospasm in passively sensitized guinea pigs at 25 mg/kg peroral dose; format: functional; conditions: route oral

## Cn1cnc2c(=O)n(-c3ccccc3)c3ncccc3c21
Cavia porcellus [1]
  IC50: > 30 µM

## Oc1c2ncnc-2c2ccccc2n1-c1ccccc1
Cavia porcellus [1]
  IC50: > 30 µM

## CCCCn1c(=O)c2c(ncn2C)c2cccnc21
Cavia porcellus [2]
  MCT: 215 s
Cavia porcellus [1]
  IC50: 3.57 µM
Mus musculus
  MLD: 200 mg/kg
[3]
  IC50: 3.6 µM

## COc1cccc(-n2c(O)c3ncnc-3c3cccnc32)c1
Cavia porcellus [1]
  IC50: > 30 µM

## Oc1c2ncnc-2c2cccnc2n1-c1cccc(Cl)c1
Cavia porcellus [1]
  IC50: > 30 µM

## CCOC(=O)c1ccc(-n2c(O)c3ncnc-3c3cccnc32)cc1
Cavia porcellus [1]
  IC50: > 30 µM

## Oc1c2nnnc-2c2cccnc2n1-c1ccccc1
Cavia porcellus [1]
  IC50: > 30 µM

## Oc1c2nc(-c3ccccc3)nc-2c2cccnc2n1-c1ccccc1
Cavia porcellus [1]
  IC50: > 30 µM

## CCN(CC)CCCn1cnc2c3cccnc3n(-c3ccccc3)c(=O)c21
Cavia porcellus [1]
  IC50: > 30 µM

## O=c1c2c(ncn2CCCN2CCOCC2)c2cccnc2n1-c1ccccc1
Cavia porcellus [1]
  IC50: > 30 µM

## CCn1cnc2c3cccnc3n(-c3ccccc3)c(=O)c21
Cavia porcellus [1]
  IC50: 0.47 µM
Mus musculus
  MLD: 100 mg/kg
[3]
  IC50: 2 µM

## Cn1cnc2c3cccnc3n(-c3ccccc3)c(=O)c21
Cavia porcellus [2]
  MCT: 543 s
Cavia porcellus [1]
  IC50: 0.22 µM
Mus musculus
  MLD: 100 mg/kg
[3]
  IC50: 6.6 µM

## CC(C)n1cnc2c3cccnc3n(-c3ccccc3)c(=O)c21
Cavia porcellus [1]
  IC50: 4.98 µM
Mus musculus
  MLD: 200 mg/kg
[3]
  IC50: 2.5 µM

## CC(C)Cn1cnc2c3cccnc3n(-c3ccccc3)c(=O)c21
Cavia porcellus [2]
  MCT: 551 s
Cavia porcellus [1]
  IC50: 6.78 µM
Mus musculus
  MLD: 300 mg/kg
[3]
  IC50: 0.15 µM

## CCCCn1c(=O)c2ncn(C)c2c2cccnc21
Cavia porcellus [2]
  MCT: 335 s
Cavia porcellus [1]
  IC50: 13 µM
Mus musculus
  MLD: 300 mg/kg

## Cc1cccc(-n2c(O)c3ncnc-3c3cccnc32)c1
Cavia porcellus [1]
  IC50: > 30 µM

## Cc1ccc(-n2c(O)c3ncnc-3c3cccnc32)cc1
Cavia porcellus [1]
  IC50: > 30 µM

## CCOC(=O)c1cccc(-n2c(O)c3ncnc-3c3cccnc32)c1
Cavia porcellus [1]
  IC50: > 30 µM

## CCCCn1c(O)c2ncnc-2c2cccnc21
Cavia porcellus [1]
  IC50: > 30 µM

## Cc1nc2c(O)n(-c3ccccc3)c3ncccc3c-2n1
Cavia porcellus [1]
  IC50: > 30 µM

## COc1ccc(-n2c(O)c3ncnc-3c3cccnc32)cc1
Cavia porcellus [1]
  IC50: > 30 µM

## O=C(O)Cn1cnc2c3cccnc3n(-c3ccccc3)c(=O)c21
Cavia porcellus [1]
  IC50: > 30 µM

## CCCCCCn1cnc2c3cccnc3n(-c3ccccc3)c(=O)c21
Cavia porcellus [1]
  IC50: > 30 µM

## CC(C)n1cnc2c(=O)n(-c3ccccc3)c3ncccc3c21
Cavia porcellus [1]
  IC50: > 30 µM

## Oc1c2ncnc-2c2cccnc2n1-c1ccccc1
Cavia porcellus [4]
  MCT: 301 s
Cavia porcellus [5]
  MCT: 410 s
Cavia porcellus [6]
  MCT: 397 s
Cavia porcellus [7]
  MCT: 491 s
Cavia porcellus [8]
  MCT: 483 s
Cavia porcellus [2]
  MCT: 457 s
Cavia porcellus [1]
  IC50: 2.18 µM
Cavia porcellus [9]
  IC50: 3.04 µM
Cavia porcellus [10]
  IC50: 10.2 µM
Cavia porcellus [11]
  IC50: 5.72 µM
Mus musculus
  MLD: > 300 mg/kg
[12]
  IC50: 12 µM

## CCCn1cnc2c3cccnc3n(-c3ccccc3)c(=O)c21
Cavia porcellus [2]
  MCT: 505 s
Cavia porcellus [1]
  IC50: 8.3 µM
Mus musculus
  MLD: 200 mg/kg
[3]
  IC50: 0.52 µM

## CCCCn1cnc2c3cccnc3n(-c3ccccc3)c(=O)c21
Cavia porcellus [1]
  IC50: > 30 µM

## COc1ccc(C2CNC(=O)C2)cc1OC1CCCC1 (stereo not given) [ROLIPRAM]
Cavia porcellus [1]
  IC50: 0.34 µM

## Cn1c(=O)c2nc[nH]c2n(C)c1=O.O [THEOPHYLLINE]
Cavia porcellus [13]
  MCT: 389 s
Cavia porcellus [7]
  MCT: 414 s
Cavia porcellus [2]
  MCT: 343 s
